Measured values: patent US6133311A, “Method for preventing or treating elevated blood lipid level-related diseases by administering natural phenolic compounds” (priority 1998, dated 2000)

Experiments:
[1] = plasma cholesterol, HDL-cholesterol and neutral lipid levels in rats fed a high-cholesterol diet; assay type: in vivo, Sprague-Dawley rats; conditions: six weeks; for HDL-C/Total-C ratio higher than in the control group / neutral lipid content lower than in the Control group / total plasma cholesterol level lower than in the Control group: 0.1% in diet; for HDL-C / Total-C / HDL-C (HDL-cholesterol) / TG (triglyceride) / Total-C (total cholesterol): 1% cholesterol plus 0.1% compound in diet; for HDL-C / Total-C: Control 28; for HDL-C (HDL-cholesterol): Control 38 ± 2; for TG (triglyceride): Control 98 ± 5; for Total-C (total cholesterol): Control 135 ± 6
Source text: Effect of Tannin, Gallic acid or Ellagic acid on Plasma Cholesterol, HDL-Cholesterol and Neutral Lipid Levels
(Step 1) Administration of tannin or gallic acid to rats
30 three-week-old white Sprague-Dawley rats (Taihan laboratory animal center, Korea), each weighing about 90 to 110 g, were evenly divided into three dietary groups by a randomized block design. The rats of the three groups were fed with three different high-cholesterol diets, i.e., AIN-76 laboratory animal diet (ICN Biochemicals, Cleveland, Ohio, U.S.A.) containing 1% cholesterol (Control group), 1% cholesterol plus 0.1% tannin group (tannin group) and 1% cholesterol plus 0.1% gallic acid, respectively.
The rats were allowed to feed freely on the specified diet together with water for six weeks, the ingestion amount was recorded daily and the rats were weighed every 7 days, and then the record was analyzed.
(Step 2) Determination of total cholesterol, HDL-cholesterol and neutral lipid content in blood
The effects of administering tannin or gallic acid to rats on the plasma cholesterol and neutral lipid contents were determined as follows.
The rats of the three dietary groups obtained in Step 1 were sacrificed and blood samples were taken therefrom. The blood was allowed to stand for 2 hours and centrifuged at 3,000 rpm for 15 minutes and the supernatant was separated and stored in a deep freezer before use. The chemical analysis of blood was carried out by employing a blood chemical analyzer (CIBA Corning 550 Express, USA) to determine the changes in total cholesterol, HDL-cholesterol and triglyceride levels.

[2] = system: main artery (arterial endothelium); experiment: analysis for fatty streak in the main artery of rabbits; assay type: in vivo, New Zealand White rabbits; conditions: for Fatty streak (proportion of stained region to total arterial area): 1% cholesterol diet plus 0.1% compound (Lovastatin 1 mg/kg), Control 35 ± 14; for Fatty streak (proportion of stained region to total arterial area) / plaque formation in the endothelium of the main artery: 6 weeks; for deposition of macrophages on the arterial endothelium: blood cholesterol level high
Experimental: 30 three-month-old male New Zealand White rabbits (Yeonam Horticulture and Animal Husbandry College, Korea), each weighing about 2.5 to 2.6 kg, were raised under a condition of temperature 20+2° C., relative humidity 55±5%, and photoperiod 12L/12D. The rabbits were divided into 5 groups and 5 groups of rabbits were fed with 5 different diets, i.e., RC4 diet (Oriental Yeast Co., Japan) containing 1% cholesterol (Control group, 1); 1% cholesterol plus 1 mg/kg Lovastatin® (Merck, U.S.A.) (Lovastatin® group, 2); 1% cholesterol plus 0.1% tannin (3); 1% cholesterol plus 0.1% gallic acid (4); and 1% cholesterol plus 0.1% ellagic acid (5), respectively. RC4 diet comprises 7.6% moisture, 22.8% crude protein, 2.8% crude fat, 8.8% crude ash, 14.4% crude cellulose and 43.6% soluble nitrogen-free substances. Tannin, gallic acid and ellagic acid were purchased from Sigma Chemical Co. (St. Louis, Mo.).
The rabbits were fed for 6 weeks while being allowed free access to the diets and water.
(Step 3) Analysis for fatty streak in the main artery
The chest of each of the rabbits sacrificed in Step 2 was incised. The downward portion of the main artery from the site 1 cm above the aortic valve was cut out in a length of about 5 cm and the fat surrounding the main artery was removed. The main artery was incised in the middle along the longitudinal axis and pinned to a dish. The moist artery was photographed and, then, the staining of fatty streaks was carried out in accordance with the method of Esper, E., et al. (J. Lab. Clin. Med., 121, 103-110 (1993)) as follows.
A part of the incised main artery was washed three times with anhydrous propylene glycol for 2 min. and stained for 30 min. with a saturated solution of Oil Red O (ORO, Sigma Co.) dissolved in propylene glycol. Thereafter, the artery was washed twice with 85% propylene glycol for 3 min. to remove remaining staining solution and, then washed with physiological saline. The artery was photographed and the photograph was traced. The area of stained region (fatty streak region) was determined with an image analyzer (LEICA, Q-600, Germany) and its proportion (%) to the total arterial area was calculated.
FIGS. 1A, 1B and 1C show the arteries of the rabbits administered with 1% cholesterol (Control group); 1% cholesterol plus 1 mg/kg Lovastatin® (Lovastatin® group); 1% cholesterol plus 0.1% ellagic acid, respectively.

Molecule	HDL-C/Total-C ratio higher than in the control group [1] [%]	neutral lipid content lower than in the Control group [1] [%]	total plasma cholesterol level lower than in the Control group [1] [%]	HDL-C / Total-C [1] [%]	HDL-C (HDL-cholesterol) [1] [mg/dL]	TG (triglyceride) [1] [mg/dL]	Total-C (total cholesterol) [1] [mg/dL]	Fatty streak (proportion of stained region to total arterial area) [2] [%]	plaque formation in the endothelium of the main artery [2]	deposition of macrophages on the arterial endothelium [2]
O=C(O)c1cc(O)c(O)c(O)c1 [Gallic acid, gallic acid]	21	22	31	34	32 ± 3	77 ± 4	93 ± 5	10 ± 2	inhibit	strongly inhibit
tannin	54	21	35	43	37 ± 2	76 ± 3	88 ± 4	13 ± 2	inhibit	strongly inhibit
